Experiment: gradient 5% acetonitrile 3 min, to 50% in 2 min, to 85% in 15 min, held 3 min, 100 µL/min
Details: column: Zorbax Extend-C18 2.1 x 50 mm; eluents: water / acetonitrile, 0.1% formic acid
Summary of the method: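 Pure standards were run in mixtures of ~100 molecules by HPLC coupled to a quadrupole time-of-flight mass spectrometer. The column was a Zorbax Extend-C18 (2.1 × 50 mm, 1.8 μm) at 100 μL/min, with water and acetonitrile each containing 0.1% formic acid, in positive and negative ionization mode. Dead and dwell volumes were 40 μL and 900 μL. Retention time was taken from computationally picked adduct peaks, each manually inspected, with data collected over 3 months.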

SMILES	RP-LC retention time [s]
CCOC(=O)N1CCN(S(=O)(=O)c2ccc(C(=O)Nc3cc(C)no3)cc2)CC1	736
CN(CCc1noc(-c2ccccc2Cl)n1)C(=O)COc1ccccc1	900
Cn1cnnc1CC1CCN(C(=O)Nc2ccccc2)C1 (stereo unspecified)	587
Clc1ccc(-c2nc3cnccn3c2Nc2ccc3c(c2)OCO3)cc1	930
CC[C@H](C)NC(=O)Cc1nnc(-c2ccc(OC)cc2)o1	707
Cc1[nH]nc(-c2c(C)sc(C)c2S(=O)(=O)Nc2cccc(Br)c2)c1C	1130
CCN1C(=O)C2CCCCN2c2ccc(C(=O)N3CCN(c4ccccc4)CC3)cc21 (stereo unspecified)	974
CC(C)Oc1ccc(C(=O)N[C@H](CNC(=O)CN(C)C)Cc2ccc(-c3cn4cccc([C@H](C)O)c4n3)cc2)cc1Cl	664
Cc1cc(=O)n(CC(=O)Nc2cccc(F)c2)c(N)n1	603
O=c1ccc(S(=O)(=O)N2CCCC2)cn1Cc1cccc(F)c1	826
O=C(Cn1nc(Cc2cccnc2)c2ccccc2c1=O)NCCC1=CCCCC1	663
O=C(Nc1ccc(N2CCOCC2)cc1)c1cc2ccccc2o1	757
Cc1c(C(=O)Nc2ccccc2)cnc2nc(-c3ccncc3)nn12	594
Cc1nn2c(CNS(=O)(=O)c3ccc(C)c(Cl)c3)c(-c3ccccc3)nc2s1	962
COc1ccc(OC)c(S(=O)(=O)NC2CCc3nn(CC4CC4)c(=O)n3CC2)c1 (stereo unspecified)	707
CCc1noc(NC(C)=O)c1-c1ccc(OC)c(S(=O)(=O)Nc2cc(Cl)ccc2C)c1	870
COC(=O)c1cccc(Nc2c(-c3ccc([N+](=O)[O-])cc3)nc3cnccn23)c1	839
CCCOC(=O)c1cccc(Nc2nc(-c3cccnc3)nc3ccccc23)c1	889

SMILES	RP-LC retention time [s]
O=C(Cn1cnc2c(nnn2Cc2ccc(F)cc2)c1=O)N1CCCc2ccccc21	822
CCCN(CCC)CCCNC(=O)C1CCCN(c2ncc(-c3ccc(F)cc3)cn2)C1 (stereo unspecified)	749
CN(C)S(=O)(=O)N1CCC(F)(c2nc(-c3ccccc3)no2)CC1	1030
CCOC(=O)c1cn[nH]c1S(=O)(=O)Nc1ccc2c(c1)OCCO2	683
O=C(Nc1cccc(C(F)(F)F)c1)N1CCN(c2ccc(Nc3cccnc3)nn2)CC1	566
Cc1cc(C)c2c(N)c(C(=O)c3ccccn3)sc2n1	739
COc1c(C(=O)NCc2ccc3c(c2)OCO3)sc2ccc(Cl)cc12	1070
COc1ccc(NC(=O)N2CC3CCCN3c3ccccc32)cc1 (stereo unspecified)	985
O=C(CN1C(=O)CC(c2cccs2)=Nc2ccccc21)NCc1ccccc1	876
CCOC(=O)Cn1c(C2CC(=O)N(c3cc(Cl)ccc3OC)C2)nc2ccccc21 (stereo unspecified)	778
O=C(NCc1ccc2c(c1)OCO2)C1CCCN(c2ncc(-c3cccc(F)c3)cn2)C1 (stereo unspecified)	998
CN(C)c1ccc(C(=O)Nc2cc(-c3ccccn3)no2)cc1	812
COc1cc(NC(=O)COc2cc(C)nc(N3CCN(c4ccccc4)CC3)n2)cc(OC)c1OC	764
Cn1c(=O)c(F)c(Nc2ccc(I)cc2F)c2c(=O)n(C[C@@H](O)CO)cnc21	756
CC(=O)Nc1ccc(C(=O)NC2CCN(c3cc(-c4ccc(Cl)cc4)[nH]n3)C2)cc1 (stereo unspecified)	675
Cc1nc2ccn(Cc3ccco3)c(=O)c2cc1C(=O)N1CCN(C)CC1	644
CC1(C)CC(=O)c2cn(-c3ccc(Cl)cc3)c(=O)c(C(=O)NCCN3CCOCC3)c2C1	592
COc1ccccc1-c1noc(Cn2cnc3c(cnn3-c3ccc(Cl)cc3)c2=O)n1	1010
